Test systems include SR leukemia; CCRF-CEM leukemia; UACC-62 melanoma; MDA-MB-435; HL-60(TB) leukemia; COLO 205 colon; K-562 leukemia; NCI-H226 lung; CAKI-1 renal; RXF 393 renal.
Common to all, as to assay: DTP human tumour cell line panel, 48 h

“And” between values parts separate entries of the source, which are not always exact repeats. Equal values may be shown once.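 Values below derive from 48-hour exposures of cells grown in 96-well plates, with endpoints linearly interpolated between the two concentrations bracketing the appropriate inhibition level. At the GI50, growth is halved. At the TGI there is no net growth.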

Among the data in PubChem BioAssay (NCI) are GI50 and TGI values, retold here.

Broadly, the GI50 is the concentration that inhibits growth by half. The term TGI denotes the concentration giving total growth inhibition. Higher therefore signals less potent growth arrest. Consider `CCN(CC)CCCC(CNc1ccnc2cc(Cl)ccc12)c1ccc(Cl)cc1` (centres undefined), for which the concentration for 50% growth inhibition (GI50) in the assay with SR leukemia was 337 nM and 307 nM; with CCRF-CEM leukemia, 1710 nM and 1200 nM; with UACC-62 melanoma, 1900 nM and 1860 nM; in the assay on MDA-MB-435, 1190 nM and 204 nM; in the assay with HL-60(TB) leukemia it was 1750 nM and 1520 nM; in the assay with COLO 205 colon, 1.38 µM and 0.212 µM. Also, the GI50 with K-562 leukemia is 289 nM and 227 nM; in the assay with NCI-H226 lung it was 2140 nM and 2550 nM; in the assay with CAKI-1 renal, 1480 nM and 547 nM; in the assay on RXF 393 renal, 1400 nM and 1030 nM. Also, the TGI with SR leukemia is 1.38 µM and 1.09 µM; in the assay with CCRF-CEM leukemia it was 5.17 µM and 4.6 µM; with UACC-62 melanoma, 3.52 µM and 3.5 µM; in the assay on MDA-MB-435, 2.55 µM and 0.462 µM; in the assay on HL-60(TB) leukemia it was 3.79 µM and 3.62 µM; in the assay with COLO 205 colon, 2.94 µM and 0.466 µM. Also, the TGI in the assay on K-562 leukemia was 0.994 µM and 0.603 µM; in the assay with NCI-H226 lung, 5.81 µM and 8.83 µM; in the assay on CAKI-1 renal, 3.2 µM and 1.91 µM; with RXF 393 renal, 3.01 µM and 2.51 µM.

Regarding `N#CC(=C1C=CC(=NO)C=C1)c1ccccc1`, the GI50 is 349 nM with SR leukemia; 476 nM in the assay on CCRF-CEM leukemia; 1490 nM with UACC-62 melanoma; 331 nM in the assay on MDA-MB-435; 1190 nM in the assay with HL-60(TB) leukemia; 6.33 µM in the assay on COLO 205 colon. The GI50 with K-562 leukemia was 1850 nM; with NCI-H226 lung, 2350 nM; in the assay on CAKI-1 renal, 1230 nM; with RXF 393 renal, 1140 nM. Further, the concentration for total growth inhibition (TGI) in the assay on SR leukemia came out at 3.73 µM; with CCRF-CEM leukemia it was 2.36 µM; in the assay on UACC-62 melanoma, 7.41 µM; with MDA-MB-435, 1.65 µM; in the assay with HL-60(TB) leukemia it was 4.1 µM; in the assay on COLO 205 colon it was 18.5 µM. Further, the TGI in the assay with K-562 leukemia came out at 13.2 µM; in the assay on NCI-H226 lung, 7.47 µM; with CAKI-1 renal it was 11.5 µM; in the assay with RXF 393 renal, 8.63 µM.

On to `Cc1cc(I)cc(CN(C)CCCN2CCCCCCC2)c1O`, for which the GI50 in the assay with SR leukemia is 2110 nM; in the assay on CCRF-CEM leukemia, 6220 nM; with UACC-62 melanoma, 6000 nM; in the assay on MDA-MB-435, 13200 nM; in the assay on HL-60(TB) leukemia it was 2260 nM; with COLO 205 colon it was 17.4 µM. In addition, the GI50 with K-562 leukemia is 2460 nM; in the assay with NCI-H226 lung, 16300 nM; with CAKI-1 renal it was 13800 nM; in the assay on RXF 393 renal, 14300 nM. Also, the total growth inhibition concentration (TGI) with SR leukemia worked out at 14.6 µM; in the assay on CCRF-CEM leukemia it was 21.9 µM; with UACC-62 melanoma, 18 µM; in the assay with MDA-MB-435 it was 30.1 µM; in the assay on HL-60(TB) leukemia, 7.97 µM; with COLO 205 colon, 37.1 µM. Further, the TGI stood at 23.8 µM with K-562 leukemia, 35 µM with NCI-H226 lung, 28 µM with CAKI-1 renal and 35.1 µM in the assay with RXF 393 renal.

On to `CC(CCC=O)CCOCc1ccccc1` (centres undefined), for which the TGI in the assay on SR leukemia was more than 80.7 µM; in the assay with CCRF-CEM leukemia it was more than 84.2 µM; in the assay with UACC-62 melanoma it was more than 100 µM; with MDA-MB-435, more than 100 µM; in the assay on HL-60(TB) leukemia, 45.1 µM; in the assay with COLO 205 colon, more than 100 µM. In addition, the TGI in the assay with K-562 leukemia is more than 100 µM; in the assay with NCI-H226 lung, more than 100 µM; in the assay with CAKI-1 renal, more than 60.8 µM; with RXF 393 renal, more than 100 µM.

On to `O=C(Cc1ccc(/C=C/C(=O)c2ncc[nH]2)cc1)Nc1cc(F)c(F)c(F)c1`, for which the GI50 was 2160 nM with SR leukemia; 2790 nM with CCRF-CEM leukemia; 3710 nM with UACC-62 melanoma; 4250 nM in the assay on MDA-MB-435; 4280 nM in the assay on HL-60(TB) leukemia; 4.08 µM with COLO 205 colon. Also, the GI50 was 2310 nM with K-562 leukemia, 4830 nM with NCI-H226 lung, 3680 nM with CAKI-1 renal and 3060 nM with RXF 393 renal. The TGI with SR leukemia came out at 13.3 µM; with CCRF-CEM leukemia, 13.9 µM; with UACC-62 melanoma, 8.91 µM; in the assay with MDA-MB-435, 12.8 µM; in the assay on HL-60(TB) leukemia, 11.2 µM; in the assay on COLO 205 colon, 9.4 µM. Besides, the concentration for total growth inhibition (TGI) in the assay with K-562 leukemia is more than 25 µM; in the assay with NCI-H226 lung, 12.8 µM; in the assay with CAKI-1 renal, 7.05 µM; in the assay with RXF 393 renal, 6.56 µM.

As for `Clc1nc2ccccc2nc1CI`, the GI50 was 638 nM with SR leukemia; 930 nM with CCRF-CEM leukemia; 4320 nM in the assay on UACC-62 melanoma; 2350 nM in the assay with MDA-MB-435; 2860 nM with HL-60(TB) leukemia; 2.17 µM in the assay on COLO 205 colon. Also, the GI50 was 1740 nM in the assay with K-562 leukemia, 2670 nM in the assay on NCI-H226 lung, 5650 nM in the assay with CAKI-1 renal and 3080 nM in the assay on RXF 393 renal. Also, the total growth inhibition concentration (TGI) in the assay with CCRF-CEM leukemia was 4.99 µM; in the assay with UACC-62 melanoma, 16.5 µM; in the assay on MDA-MB-435 it was 6.61 µM; with HL-60(TB) leukemia it was 18.2 µM; in the assay with COLO 205 colon, 4.06 µM; with K-562 leukemia it was more than 32.5 µM. In addition, the TGI in the assay on NCI-H226 lung is 8.24 µM; with CAKI-1 renal it was 13.2 µM; in the assay on RXF 393 renal, 11.7 µM.
